{"source": "patent US20260262643A1", "about": "“HERBICIDAL BENZOXAZINES” (FMC CORPORATION, priority 2022, published 2026)", "key": {"barnyardgrass [1]": {"test_system": "barnyardgrass", "experiment": "Test C preemergence", "type": "in vivo, Echinochloa crusgalli", "method_in_brief": "(§1)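 Soil-applied (pre) and foliar (post, 1–2 leaf, 2–10 cm) sprays; surfactant-containing non-phytotoxic solvent vehicle; loam/sand substrate. Readout: visual % control at 10 d, greenhouse, versus untreated.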"}, "blackgrass [2]": {"test_system": "blackgrass", "experiment": "Test C preemergence", "type": "in vivo, Alopecurus myosuroides", "method_in_brief": "as §1"}, "corn [3]": {"test_system": "corn", "experiment": "Test C preemergence", "type": "in vivo, Zea mays", "method_in_brief": "as §1"}, "foxtail, giant [4]": {"test_system": "foxtail, giant", "experiment": "Test C preemergence", "type": "in vivo, Setaria faberi", "method_in_brief": "as §1"}, "kochia [5]": {"test_system": "kochia", "experiment": "Test C preemergence", "type": "in vivo, Bassia scoparia", "method_in_brief": "as §1"}, "oat, wild [6]": {"test_system": "oat, wild", "experiment": "Test C preemergence", "type": "in vivo, Avena fatua", "method_in_brief": "as §1"}, "pigweed, palmer [7]": {"test_system": "pigweed, palmer", "experiment": "Test C preemergence", "type": "in vivo, Amaranthus palmeri", "method_in_brief": "as §1"}, "ragweed [8]": {"test_system": "ragweed", "experiment": "Test C preemergence", "type": "in vivo, Ambrosia artemisiifolia", "method_in_brief": "as §1"}, "ryegrass, Italian [9]": {"test_system": "ryegrass, Italian", "experiment": "Test C preemergence", "type": "in vivo, Lolium multiflorum", "method_in_brief": "as §1"}, "soybean [10]": {"test_system": "soybean", "experiment": "Test C preemergence", "type": "in vivo, Glycine max", "method_in_brief": "as §1"}, "wheat [11]": {"test_system": "wheat", "experiment": "Test C preemergence", "type": "in vivo, Triticum aestivum", "method_in_brief": "as §1"}, "barnyardgrass [12]": {"test_system": "barnyardgrass", "experiment": "Test C postemergence", "type": "in vivo, Echinochloa crusgalli", "details": "10 days, 0 to 100 scale (0 no effect, 100 complete control)", "method_in_brief": "as §1"}, "blackgrass [13]": {"test_system": "blackgrass", "experiment": "Test C postemergence", "type": "in vivo, Alopecurus myosuroides", "details": "10 days, 0 to 100 scale (0 no effect, 100 complete control)", "method_in_brief": "as §1"}, "corn [14]": {"test_system": "corn", "experiment": "Test C postemergence", "type": "in vivo, Zea mays", "details": "10 days, 0 to 100 scale (0 no effect, 100 complete control)", "method_in_brief": "as §1"}, "foxtail, giant [15]": {"test_system": "foxtail, giant", "experiment": "Test C postemergence", "type": "in vivo, Setaria faberi", "details": "10 days, 0 to 100 scale (0 no effect, 100 complete control)", "method_in_brief": "as §1"}, "kochia [16]": {"test_system": "kochia", "experiment": "Test C postemergence", "type": "in vivo, Bassia scoparia", "details": "10 days, 0 to 100 scale (0 no effect, 100 complete control)", "method_in_brief": "as §1"}, "oat, wild [17]": {"test_system": "oat, wild", "experiment": "Test C postemergence", "type": "in vivo, Avena fatua", "details": "10 days, 0 to 100 scale (0 no effect, 100 complete control)", "method_in_brief": "as §1"}, "pigweed, palmer [18]": {"test_system": "pigweed, palmer", "experiment": "Test C postemergence", "type": "in vivo, Amaranthus palmeri", "details": "10 days, 0 to 100 scale (0 no effect, 100 complete control)", "method_in_brief": "as §1"}, "ragweed [19]": {"test_system": "ragweed", "experiment": "Test C postemergence", "type": "in vivo, Ambrosia artemisiifolia", "details": "10 days, 0 to 100 scale (0 no effect, 100 complete control)", "method_in_brief": "as §1"}, "ryegrass, Italian [20]": {"test_system": "ryegrass, Italian", "experiment": "Test C postemergence", "type": "in vivo, Lolium multiflorum", "details": "10 days, 0 to 100 scale (0 no effect, 100 complete control)", "method_in_brief": "as §1"}, "soybean [21]": {"test_system": "soybean", "experiment": "Test C postemergence", "type": "in vivo, Glycine max", "details": "10 days, 0 to 100 scale (0 no effect, 100 complete control)", "method_in_brief": "as §1"}, "wheat [22]": {"test_system": "wheat", "experiment": "Test C postemergence", "type": "in vivo, Triticum aestivum", "details": "10 days, 0 to 100 scale (0 no effect, 100 complete control)", "method_in_brief": "as §1"}, "galium": {"test_system": "galium", "experiment": "Test C postemergence", "type": "in vivo, Galium aparine", "details": "10 days, 0 to 100 scale (0 no effect, 100 complete control)", "method_in_brief": "as §1"}, "horseweed": {"test_system": "horseweed", "experiment": "Test C postemergence", "type": "in vivo, Erigeron canadensis", "details": "10 days, 0 to 100 scale (0 no effect, 100 complete control)", "method_in_brief": "as §1"}, "barnyardgrass [23]": {"test_system": "barnyardgrass", "experiment": "Test D flooded paddy test", "type": "in vivo, Echinochloa crus-galli", "details": "250 g ai/ha, applied to paddy water, visual rating after 13 to 14 days, scale 0 to 100 (0 no effect, 100 complete control)", "method_in_brief": "(§2)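 Rating scale 0–100 (0 no effect, 100 complete control), visual, versus controls. Readout at 13–14 days after in-water application to 2-leaf plants in pots flooded 3 cm deep.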"}, "ducksalad": {"test_system": "ducksalad", "experiment": "Test D flooded paddy test", "type": "in vivo, Heteranthera limosa", "details": "250 g ai/ha, applied to paddy water, visual rating after 13 to 14 days, scale 0 to 100 (0 no effect, 100 complete control)", "method_in_brief": "as §2"}, "rice": {"test_system": "rice", "experiment": "Test D flooded paddy test", "type": "in vivo, Oryza sativa", "details": "250 g ai/ha, applied to paddy water, visual rating after 13 to 14 days, scale 0 to 100 (0 no effect, 100 complete control)", "method_in_brief": "as §2"}, "sedge, umbrella": {"test_system": "sedge, umbrella", "experiment": "Test D flooded paddy test", "type": "in vivo, Cyperus difformis", "details": "250 g ai/ha, applied to paddy water, visual rating after 13 to 14 days, scale 0 to 100 (0 no effect, 100 complete control)", "method_in_brief": "as §2"}, "[24]": {"details": "500 g ai/ha, preemergence, 0 to 100 scale (0 no effect, 100 complete control)"}, "[25]": {"details": "Preemergence, 125 g ai/ha, 0 to 100 scale, 0 no effect, 100 complete control"}}}
{"smiles": "C=C(C)c1cc(C(=O)N2C[C@H](C)Oc3c(Cl)cccc32)cc(-n2cncn2)c1", "note": "[Compound 317]", "values": [{"measurement": "Barnyardgrass plant response rating", "setting": "barnyardgrass [1]; [24]", "result": 50}, {"measurement": "Plant response rating, Barnyardgrass", "setting": "barnyardgrass [1]; [25]", "result": 0}, {"measurement": "Blackgrass plant response rating", "setting": "blackgrass [2]; [24]", "result": 50}, {"measurement": "Plant response rating, Blackgrass", "setting": "blackgrass [2]; [25]", "result": 0}, {"measurement": "Corn plant response rating", "setting": "corn [3]; [24]", "result": 10}, {"measurement": "Plant response rating, Corn", "setting": "corn [3]; [25]", "result": 0}, {"measurement": "Foxtail, Giant plant response rating", "setting": "foxtail, giant [4]; [24]", "result": 90}, {"measurement": "Plant response rating, Foxtail, Giant", "setting": "foxtail, giant [4]; [25]", "result": 10}, {"measurement": "Kochia plant response rating", "setting": "kochia [5]; [24]", "result": 0}, {"measurement": "Plant response rating, Kochia", "setting": "kochia [5]; [25]", "result": 0}, {"measurement": "Oat, Wild plant response rating", "setting": "oat, wild [6]; [24]", "result": 40}, {"measurement": "Plant response rating, Oat, Wild", "setting": "oat, wild [6]; [25]", "result": 0}, {"measurement": "Pigweed, Palmer plant response rating", "setting": "pigweed, palmer [7]; [24]", "result": 90}, {"measurement": "Plant response rating, Pigweed, Palmer", "setting": "pigweed, palmer [7]; [25]", "result": 20}, {"measurement": "Ragweed plant response rating", "setting": "ragweed [8]; [24]", "result": 0}, {"measurement": "Plant response rating, Ragweed", "setting": "ragweed [8]; [25]", "result": 0}, {"measurement": "Ryegrass, Italian plant response rating", "setting": "ryegrass, Italian [9]; [24]", "result": 60}, {"measurement": "Plant response rating, Ryegrass, Italian", "setting": "ryegrass, Italian [9]; [25]", "result": 40}, {"measurement": "Soybean plant response rating", "setting": "soybean [10]; [24]", "result": 0}, {"measurement": "Plant response rating, Soybean", "setting": "soybean [10]; [25]", "result": 0}, {"measurement": "Wheat plant response rating", "setting": "wheat [11]; [24]", "result": 0}, {"measurement": "Plant response rating, Wheat", "setting": "wheat [11]; [25]", "result": 0}, {"measurement": "Plant response rating, Barnyardgrass", "setting": "barnyardgrass [12]; 500 g ai/ha, postemergence", "result": 70}, {"measurement": "Plant response rating, Barnyardgrass", "setting": "barnyardgrass [12]; Postemergence, 125 g ai/ha", "result": 10}, {"measurement": "Plant response rating, Blackgrass", "setting": "blackgrass [13]; 500 g ai/ha, postemergence", "result": 60}, {"measurement": "Plant response rating, Blackgrass", "setting": "blackgrass [13]; Postemergence, 125 g ai/ha", "result": 0}, {"measurement": "Plant response rating, Corn", "setting": "corn [14]; 500 g ai/ha, postemergence", "result": 40}, {"measurement": "Plant response rating, Corn", "setting": "corn [14]; Postemergence, 125 g ai/ha", "result": 10}, {"measurement": "Plant response rating, Foxtail, Giant", "setting": "foxtail, giant [15]; 500 g ai/ha, postemergence", "result": 70}, {"measurement": "Plant response rating, Foxtail, Giant", "setting": "foxtail, giant [15]; Postemergence, 125 g ai/ha", "result": 10}, {"measurement": "Plant response rating, Kochia", "setting": "kochia [16]; 500 g ai/ha, postemergence", "result": 70}, {"measurement": "Plant response rating, Kochia", "setting": "kochia [16]; Postemergence, 125 g ai/ha", "result": 20}, {"measurement": "Plant response rating, Oat, Wild", "setting": "oat, wild [17]; 500 g ai/ha, postemergence", "result": 30}, {"measurement": "Plant response rating, Oat, Wild", "setting": "oat, wild [17]; Postemergence, 125 g ai/ha", "result": 0}, {"measurement": "Plant response rating, Pigweed, Palmer", "setting": "pigweed, palmer [18]; 500 g ai/ha, postemergence", "result": 50}, {"measurement": "Plant response rating, Pigweed, Palmer", "setting": "pigweed, palmer [18]; Postemergence, 125 g ai/ha", "result": 10}, {"measurement": "Plant response rating, Ragweed", "setting": "ragweed [19]; 500 g ai/ha, postemergence", "result": 0}, {"measurement": "Plant response rating, Ragweed", "setting": "ragweed [19]; Postemergence, 125 g ai/ha", "result": 0}, {"measurement": "Plant response rating, Ryegrass, Italian", "setting": "ryegrass, Italian [20]; 500 g ai/ha, postemergence", "result": 40}, {"measurement": "Plant response rating, Ryegrass, Italian", "setting": "ryegrass, Italian [20]; Postemergence, 125 g ai/ha", "result": 0}, {"measurement": "Plant response rating, Soybean", "setting": "soybean [21]; 500 g ai/ha, postemergence", "result": 100}, {"measurement": "Plant response rating, Soybean", "setting": "soybean [21]; Postemergence, 125 g ai/ha", "result": 70}, {"measurement": "Plant response rating, Wheat", "setting": "wheat [22]; 500 g ai/ha, postemergence", "result": 20}, {"measurement": "Plant response rating, Wheat", "setting": "wheat [22]; Postemergence, 125 g ai/ha", "result": 10}, {"measurement": "Plant response rating, Galium", "setting": "galium; 500 g ai/ha, postemergence", "result": 70}, {"measurement": "Plant response rating, Galium", "setting": "galium; Postemergence, 125 g ai/ha", "result": 50}, {"measurement": "Plant response rating, Horseweed", "setting": "horseweed; 500 g ai/ha, postemergence", "result": 0}, {"measurement": "Plant response rating, Horseweed", "setting": "horseweed; Postemergence, 125 g ai/ha", "result": 0}, {"measurement": "Plant response rating, Barnyardgrass (Flood)", "setting": "barnyardgrass [23]", "result": 0}, {"measurement": "Plant response rating, Ducksalad (Flood)", "setting": "ducksalad", "result": 0}, {"measurement": "Plant response rating, Rice (Flood)", "setting": "rice", "result": 0}, {"measurement": "Plant response rating, Sedge, Umbrella (Flood)", "setting": "sedge, umbrella", "result": 0}]}
